Data taken from patent publication US7994326B2 (Northwestern University, priority 2003, dated 2011).
Like-named read-outs stand apart in the source and are kept apart here.

Experiments:
Type in all cases: biochemical
murine iNOS = target: T1, murine iNOS (Mus musculus, UniProt P29477); assay: NOS enzyme inhibitory assay (hemoglobin capture), iNOS; conditions: for IC50: murine iNOS, 10 μM L-arginine
T1 construct: made in house; host or cells: E. coli (plasmid pCWiNOS)
Text: (§1) All of the NOS isoforms used were recombinant enzymes overexpressed in E. coli from different sources. Nitric oxide formation from NOS was monitored by the hemoglobin capture assay as described in the literature.
Enzyme inhibitory assay. All of the NOS isoforms used are recombinant enzymes overexpressed in E. coli from different sources.
iNOS expression: An overnight culture of pCWiNOS was used to inoculate (1:100) larger cultures of Terrific Broth media (12 g/L tryptone, 24 g/L yeast extract, 4 mL/L glycerol, 17 mM KH2PO4, and 72 mM K2HPO4) containing 50 μg/mL ampicillin and 34 μg/mL chloramphenicol at 37° C. At an OD600 of ˜0.5, the culture was cooled to 25° C. and induced by the addition of 1 mM IPTG (final concentration). After approximately 24 h of growth at 25° C., the cells were pelleted at 5300×g, transferred to 50 mL conical tubes, and stored at −80° C.
iNOS purification: Cell pellets from 1.0 L of culture were resuspended in sonication buffer (50 mM Hepes, pH 7.4, 10% glycerol, 10 μg/mL benzamidine, 5 μg/mL leupeptin, 0.2 mM of PMSF, and 1 μg/mL each of pepstatin, chymostatin, and antipain) and lysed by sonication. Centrifugation for 20 min at 13000×g yielded supernatant which contained iNOS active enzyme. iNOS supernatant was loaded onto 1 g of a 2′,5′-ADP-Sepharose 4B resin column. The column was then washed with 20 ml iNOS purification buffer (10 mM K2HPO4, 10% glycerol, 0.5 mM L-arginine, pH 7.4) and 10 μM BH4. Inducible NOS was eluted with 30 ml iNOS purification buffer supplemented with 10 mM 2′(3′)-AMP, 10 μM BH4, and 0.3 M NaCl. The eluent was concentrated to 5 ml by ultrafiltration. The above concentration operation was repeated three times more with 10 ml Hepes buffer supplemented with 10 μM BH4, to give purified inducible NOS.
(§2) Nitric oxide formation from NOS was monitored by the hemoglobin capture assay as described previously. (Hevel, J. M.; Marletta, M. A. Nitric Oxide Synthase Assays. Methods Enzymol. 1994, […], 250-258).
(§3) The selectivity of an inhibitor is defined as the ratio of the respective Ki values.

rat nNOS = target: T2, rat nNOS (Rattus norvegicus, UniProt P29476); assay: NOS enzyme inhibitory assay (hemoglobin capture), nNOS; conditions: for IC50: rat nNOS, 10 μM L-arginine
T2 construct: made in house; host or cells: E. coli (plasmid pCWnNOS)
Description: as §1
After approximately 48 h of post-induction incubation in the dark at 25° C. the cells were pelleted at 5300×g, transferred to 50 mL conical tubes, and stored at −80° C.
nNOS purification: Cell pellets from 2.0 L of culture were resuspended in sonication Buffer A (50 mM Tris Base Buffer, pH 8.0, 10% glycerol), 2 mg/ml lysozyme. 0.5 mM L-arginine. 1 mM EDTA, 0.1 mM PMSF, 1 µg/ml antipain, and 1 μM each of leupeptin, […], and […]) and lysed by sonication. Centrifugation for 1 h at 100000×g yielded supernatant which contained nNOS active enzyme. The supernatant was brought to 2 mM CaCl2 and the protein was loaded onto a 15 ml calmodulin-Sepharose column equilibrated with Buffer A containing 2 mM CaCl2. The column was washed with 100 ml Buffer B (50 mM Hepes, 5 mM DTT, and […]) containing 2 mM CaCl2, 0.5 mM L-arginine, and 10 μM BH4, and eluted with 30 ml Buffer B supplemented with 0.3 M NaCl, 5 mM EGTA, 0.5 mM L-arginine, and 10 μM BH4. The protein was then loaded onto a 5 ml 2′,5′-ADP-Sepharose column equilibrated with Buffer B supplemented with 0.3 M NaCl, 0.5 mM L-arginine, and 10 μM BH4. The column was washed with 25 ml Buffer B containing 0.5 mM L-arginine and 10 μM BH4, and then 25 ml of Buffer B only supplemented with 10 μM BH4 (without L-arginine). Neuronal NOS was eluted with 20 ml Buffer B supplemented with 10 mM 2′(3′)-AMP, 10 μM BH4 and 0.3 M NaCl. The 20 ml eluent was then concentrated to 5 ml by ultrafiltration. The above concentration operation was repeated twice more with 10 ml Buffer B supplemented with 10 µM BH4 to give the purified neuronal NOS.
Nitric oxide formation from NOS was monitored by the hemoglobin capture assay as described previously.
as §3

bovine eNOS = target: T3, bovine eNOS (Bos taurus, UniProt P29473); assay: NOS enzyme inhibitory assay (hemoglobin capture), eNOS; conditions: for IC50: bovine eNOS, 10 μM L-arginine, * = no inhibition observed up to the concentration listed
T3 construct: made in house; host or cells: E. coli (plasmid Bov-eNOSpCW)
Description: as §1
Expression of bovine eNOS: An overnight culture of Bov-eNOSpCW was used to inoculate 0.5 liter (in a 2.8-liter Fernbach flask) of modified TB (20 g of yeast extract, 10 g of bacto-tryptone, 2.65 g of KH2PO4, 4.33 g of Na2HPO4 and 4 ml of glycerol per liter) containing ampicillin ([…]) and chloramphenicol ([…]). The cultures were grown to an OD600 of z0.8 at 22° C. (200 rpm) and induced with 0.5 mM IPTG. One hour before IPTG induction, d-aminolevulinic acid (0.5 mM final) was added and, at the time of IPTG induction, riboflavin ([…]) and ATP (1 mM final) were also added. After induction, the flasks were kept in the dark at 22° C. (200 rpm). The cells were harvested 48 h after induction, and the cell pellet was frozen at −80° C. until purification was carried out.
Purification of bovine eNOS. The purification was typically carried out with eNOS from 2 liters of E. coli culture. The eNOS protein was purified using a modification of the published protocol for nNOS (14). The cells were resuspended in buffer C [50 mM Tris-Cl, pH 7.8, 1 mM EDTA, 1 mM DTT, 10% glycerol (v/v), 150 mM NaCl, 0.1 mM phenylmethylsulfonyl fluoride, […]], lysed by pulsed sonication and then centrifuged to sediment the cell debris. The supernatant was applied to a 2′,5′-ADP Sepharose 4B column equilibrated in buffer D [50 mM Tris-Cl, pH 7.8, 0.1 mM EDTA, 0.1 mM dithiothreitol, 150 mM NaCl, 10% glycerol (v/v)]. The column was washed with 20 column volumes of buffer B and again with 20 column volumes of buffer B containing 600 mM NaCl. Finally, protein was eluted with buffer B containing 600 mM NaCl and 5 mM 2′-AMP. The fractions were screened for absorption in the Soret region (A400) and hemoprotein-containing fractions were pooled and concentrated (Centriprep 50, Amicon). Repeated dilution/concentration [50 mM Tris-Cl, pH 7.8, 0.1 mM EDTA, 0.1 mM dithiothreitol, 10% glycerol (vol/vol)] was used to reach a final concentration of 150 mM NaCl and commensurately reduce the 2′-AMP content. […] The purified eNOS is stored in the presence of 1 mM L-arginine.
eNOS washing: eNOS contains a significant amount of L-arginine, which will interfere with the enzyme assay. The L-arginine can be removed by several dilution and concentration steps using an Amico concentrator. The dilution buffer is 10 ml Tris-HCl 50 mM containing 0.1 mM EDTA, 400 mM NaCl, 10% glycerol and 1 mM beta-mercaptoethanol. The above dilution and concentration operation was repeated three times to give purified eNOS.
as §2, §3

[1] = Table 1a, apparent Ki calculated from IC50, Km […], read-out: calc. Ki iNOS
[2] = Table 1a, apparent Ki calculated from IC50, Km […], read-out: calc. Ki nNOS
[3] = Table 1a, apparent Ki calculated from IC50, Km 1.7 μM, read-out: calc. Ki eNOS
[4] = Table 1b, ratio of Ki values eNOS/nNOS
[5] = Table 1b, ratio of Ki values iNOS/nNOS

| SMILES | Ki (murine iNOS; [1]) [µM] | IC50 (murine iNOS; Table 1a) [µM] | Selectivity n/e (rat nNOS; Table 1a, Ki(eNOS)/Ki(nNOS)) | Selectivity n/i (rat nNOS; Table 1a, Ki(iNOS)/Ki(nNOS)) | Ki (rat nNOS; [2]) [µM] | IC50 (rat nNOS; Table 1a) [µM] | Ki (bovine eNOS; [3]) [µM] | IC50 (bovine eNOS; Table 1a) [µM] | Ki (murine iNOS; Table 1b, read-out: Ki iNOS) [µM] | Selectivity n/e (rat nNOS; [4]) | Selectivity n/i (rat nNOS; [5]) | Ki (rat nNOS; Table 1b, read-out: Ki nNOS) [µM] | Ki (bovine eNOS; Table 1b, read-out: Ki eNOS) [µM] |
| --- | --- | --- | --- | --- | --- | --- | --- | --- | --- | --- | --- | --- | --- |
| Nc1cccc(CC2CNCC2NCC(N)Cc2ccccc2)n1 (racemic) [Compound P-31] | 238 | 524 | >600 | 98.27 | 2.42 | 21 | > 1450 | > 10000 | – | – | – | – | – |
| Nc1cccc(CC2CNCC2NC2CCNC2)n1 (racemic) [Compound P-34] | 174 | 384 | 192.54 | 138.06 | 1.26 | 11 | 243 | 1670 | – | – | – | – | – |
| Cc1cc(N)nc(C[C@H]2CNC[C@H]2NCCN)c1.Cl.Cl.Cl.Cl (racemic) [Compound P-46] | 5.5 | 12.1 | 2462.2 | 58 | 0.095 | 0.83 | 234 | 1610 | – | – | – | – | – |
| Cc1cc(N)nc(C[C@H]2CNC[C@H]2NCCNCc2ccc(C(F)(F)F)cc2)c1.Cl.Cl.Cl.Cl (racemic) [Compound P-50] | – | – | – | – | – | – | – | – | 14.1 | 428.4 | 71.5 | 0.197 | 84.4 |
| Nc1cccc(CC2CNCC2NC2CCN(Cc3ccccc3)C2)n1 (stereo not shown) [Compound P-39] | 325 | 716 | 4.10 | 14.38 | 22.6 | 196 | 92.8 | 638 | – | – | – | – | – |
| Nc1cccc(CC2CNCC2NC2CCN(Cc3ccccc3)C2)n1 (stereo not shown) [Compound P-37] | 229 | 506 | 2.42 | 3.05 | 75.2 | 654 | 182 | 1250 | – | – | – | – | – |
| Cc1cc(N)nc(C[C@@H]2CNC[C@@H]2NCCOCCc2cccc(F)c2)c1 (racemic) [Compound P-78, cis-6-{{(±)-4-[2-(3-fluorophenethoxy)ethylamino]pyrrolidin-3-yl}methyl}-4-methylpyridin-2-amine] | – | – | – | – | – | – | – | – | 1.4 | 50 | 3.5 | 0.4 | 20 |
| Nc1cccc(CC2CNCC2NC2CCNC2)n1 (racemic) [Compound P-19] | 253 | 559 | 22.00 | 12.11 | 20.9 | 182 | 460 | 3170 | – | – | – | – | – |
| Cl.Cl.Cl.Nc1cccc(CC2CNCC2NCCCc2ccccc2)n1 (racemic) [Compound P-12] | 144 | 317 | 6.42 | 10.83 | 13.3 | 115 | 85.2 | 586 | – | – | – | – | – |
| CN(C)CCNC1CNCC1Cc1cccc(N)n1 (racemic) [Compound P-30] | 195 | 429 | 42.02 | 58.45 | 3.33 | 29 | 140 | 963 | – | – | – | – | – |
| Cc1cc(N)nc(C[C@H]2CNC[C@H]2NC[C@H](C)NCc2ccc(Cl)cc2)c1.Cl.Cl.Cl.Cl (racemic) [Compound P-63] | – | – | – | – | – | – | – | – | 12.2 | 294.4 | 90 | 0.136 | 40 |
